IC50 and vasorelaxant effect data for four molecules are collected here from patent US20100113507A1, “3-Tetrazolyl Indazoles, 3-Tetrazolyl Pyrazolopyridines, and use Thereof” (BAYER HEALTHCARE AG, priority 2006, published 2010).

pIC50: −log10 of the molar value.

Assay [1] has as its system aorta rings. Briefly: Vasorelaxant effect in vitro (phenylephrine-contracted aorta rings). The format is cell-based, Rabbits. As to conditions: Oryctolagus cuniculus; rabbit aorta rings, contraction induced by phenylephrine, 37° C., 0.1% DMSO; read-out: IC50 (concentration necessary to reduce the level of contraction by 50%). On the procedure:
Rabbits are stunned by a blow to the back of the neck and are exsanguinated. The aorta is removed, freed of adherent tissue, divided into rings 1.5 mm wide and placed singly in 5 ml organ baths with carbogen-gassed Krebs-Henseleit solution of the following composition (in each case mM): NaCl: 119; KCl: 4.8; CaCl2×2H2O: 1; MgSO4×7H2O: 1.4; KH2PO4: 1.2; NaHCO3: 25; glucose: 10, under an initial tension at 37° C. The force of contraction is detected with Statham UC2 cells, amplified and digitized via A/D converters (DAS-1802 HC, Keithley Instruments Munich), and recorded in parallel on chart recorders. A contraction is induced by adding phenylephrine to the bath cumulatively in increasing concentration. After several control cycles, the substance to be investigated is added in each further run in increasing dosage each time, and the level of contraction is compared with the level of contraction achieved in the last preceding run. The concentration necessary to reduce the level of contraction by 50% (IC50) is calculated therefrom. The standard application volume is 5 μl and the DMSO content in the bath solution corresponds to 0.1%.

The conditions of assay [2]: reported by A. Straub et al., Bioorg. Med. Chem. Lett. 11, 781-784 (2001); cited from earlier work.

Take `Clc1ccc(Cn2nc(-c3nnn[nH]3)c3cccnc32)s1` [Example 7, 1-[(5-Chloro-2-thienyl)methyl]-3-(1H-tetrazol-5-yl)-1H-pyrazolo[3,4-b]pyridine]: the pIC50 in assay [1] is 5.21. For the molecule `Fc1cccc(Cn2nc(-c3nnn[nH]3)c3cccnc32)c1F` [Example 4, 1-(2,3-Difluorobenzyl)-3-(1H-tetrazol-5-yl)-1H-pyrazolo[3,4-b]pyridine], the pIC50 in assay [1] is 5.35.

In the case of `c1cnc2c(c1)c(-c1nnn[nH]1)nn2CC1CCCCCC1` [Example 1, 1-(Cycloheptylmethyl)-3-(1H-tetrazol-5-yl)-1H-pyrazolo[3,4-b]pyridine], the pIC50 in assay [1] is 5.70. As to `Fc1ccccc1Cn1nc(-c2nnn[nH]2)c2cccnc21` [1-(2-fluorobenzyl)-3-(1H-tetrazol-5-yl)-1H-pyrazolo[3,4-b]pyridine], the vasorelaxant effect entry in assay [2] was “moderately vasorelaxant effect”.
